Numbered stars: 1 amine (or outer) side, 2 acyl side, 3 side chain; on linkers, the order of the positions; unused ones are H or OH. Bridge positions count the residues as written; N and C are the ends. Square brackets hold non-standard residues; d marks the D form. Peptide text beside a SMILES is read from it. X1 = CC(C)CCCCCCCCC[C@H](CC(=O)[*:1])O[*:2] A value given as a limit tells only on which side of the number the result lay.

Series [1] concerns S. enterica pre-formed biofilm. In words: Dispersal of pre-formed biofilm in PVC wells. It counts as cell-based, Salmonella enterica. The conditions noted are these: for effect on pre-formed biofilms: detergent-like compounds mixed into cultures in PVC wells. On the procedure:
(§1) Studies were done to test biofilm formation in microtitre wells. To quantify biofilm formation, typically, 10 μl of an overnight culture were used to inoculate PVC microtitre wells containing 90 μl of LB without NaCl, but with 2% glucose. The covered microtitre dish was sealed with parafilm during incubation at 30° C. Cultures were removed to determine the OD630, and the wells were rinsed with distilled water. After drying at room temperature for 15 minutes, 200 μl of crystal violet (1%) was added to the wells for 20 minutes The stained biofilms were rinsed several times with distilled water, allowed to dry at room temperature for 15 minutes, and extracted with 2×200 μl 95% ethanol. The OD550 was estimated using a Beckman DU-640B spectrophotometer, after adjusting the volume to 1 mL with distilled water.
Surfactin was added to PVC wells after the culture had reached an OD630 of approximately 0.15-0.2. When this OD was reached, the surfactants were gently mixed into the cultures in microtitre wells. Samples were harvested and either growth as determined by OD630 or biofilm levels as measured by OD550 of CV-stained material were analyzed. The OD550 of the surfactin-treated sample decreased at a faster rate than that of the untreated sample for the initial sloughing phase of BF, resulting in an approximately 85% decrease in total biofilm by the end of the experiment at 22 hours.
The detergents tested were SDS (ionic surfactant), Tween-80 ([…] surfactant), rhamnolipid (another lipopeptide surfactant) and serrawettin. Surfactin concentration in this and the rest of the studies was maintained at 100 μg in order to compare its activity to that of the biosurfactant rhamnolipid, which affected BF when it was used at higher concentrations.

The next series relates to wild-type S. enterica. Briefly: Biofilm formation in PVC microtitre wells, crystal violet staining. It counts as cell-based, Salmonella enterica. The protocol: The ability of lipopolysaccharide (LPS) mutants to form biofilms was tested in PVC microtitre plates. The biofilm assay used monitors the ability of S. enterica to attach to the wells of the microtitre dishes. The biofilm formed at the interface between the air and liquid medium, and was quantitated by staining with crystal violet (CV) as described in the examples given below.
as §1
The swarming defect of the LPS mutants could be rescued by the addition of the surfactin isolated from Bacillus subtilis. […]

Series [2] relates to LPS mutants of S. enterica. Briefly: Rescue of swarming defect of LPS mutants. The class given is cell-based, Salmonella enterica. The note with it: addition of surfactin isolated from Bacillus subtilis.
Another series deals with Salmonella typhimurium. In words: Biofilm formation in catheters, crystal violet staining. The note with it: for inhibition of BF by S. enterica relative to surfactin: catheters, Tween 80 at 0.25%, 10 to 100 million bacterial cells. The class given is cell-based. The arrangement: key to Biofilm Formation: “++++” = efficient biofilm formation; “−” = no biofilm formation. The protocol:
(§2) To visualize biofilm formation in catheters, 10 μl of an overnight culture of S. enterica was inoculated into 500 μl of medium and injected into clear vinyl urethral catheters overnight at 30° C., with and without 100 μg surfactin. Biofilms were analyzed by staining with CV. The catheters were capped at both ends and incubated at 30° C. overnight. Media and growth conditions were as described above for PVC wells. Cultures were removed to determine the OD630, and the catheters were rinsed with distilled water. After drying at room temperature for 15 minutes, 700 μl of crystal violet (1%) was added to the catheters for 20 minutes. The stained biofilms were rinsed several times with distilled water, and allowed to dry at room temperature for 15 minutes before examination.
S. enterica was grown in clear vinyl urethral catheters. The biofilm formed by S. enterica was dispersed all along the growth surface. […] It is important to note that the same results were obtained when venous catheters made of polyurethane were tested. The data presented here relate mainly to the urethral catheters.
When the device coated is to be inserted in the body cavity, some form of surface sterilization may be necessary. Also, endogenous fluids should not wash off the surfactin coating. Studies were conducted to determine these properties of the coating (Table 1). Urethral catheters were coated with surfactin (by passing through 500 μl of a solution of 1.0 μg/μl surfactin), and 10 mL of sterile saline solution were passed through the coated catheter.
After coating urethral cathethers with surfactin, the coated catheters were subjected to treatment in an autoclave (121° C., 15 psi) for 30 minutes or baking in a 50° C. oven for 6 hours. […] Surfactin, apparently adhered to the catheters, largely inhibiting biofilm formation.
The biofilm-inhibiting properties of surfactin are not altered after storing surfactin-baked catheters (baked for one hour at 60° C.) for 5 days at room temperature (Table 2). Further, baked on surfactin is not washed off by sterile saline dripping through the catheter at 0.3 mL/minutes for 24 hours. The BF-inhibiting properties of surfactin are stable over 50 days of storage at either room temperature or at 4° C. Thus, medical devices coated with surfactin, or a substance with surfactin-like properties, may be partially sterilized by baking at 60° C., and the sterility would be maintained over a long period of time.

The test system of another series is Proteus mirabilis. Briefly: Biofilm formation in urethral catheters, crystal violet staining. It counts as cell-based. On the procedure:
as §2
(§3) The most common causes of central urinary catheter and central venous catheter infections (caused by adherent bacteria), include Eschericila coli, Proteus mirabilis, and Pseudomonas aeruginosa, Klebseiella pneumoniae, Staphylococcus epidermis. The effect of surfactin on BF by some of these medically relevant organisms was tested by growth of the organism in urethral catheters (Table 3). Escherichia coli and Proteus mirabilis formed a biofilm mainly at the air liquid interface, while the biofilm formed by P. aeruginosa, like that formed by S. enterica, was dispersed all along the catheter.

For a further series, the system named is Escherichia coli. Described as above. It counts as cell-based. The protocol: as §2, §3
A further series concerns Staphylococcus epidermis. Described as above. It counts as cell-based. The note with it: Surfactin-coated catheters. The protocol:
as §2, §3

As for `CCCCCCCCCCCCOS(=O)(=O)[O-].[Na+]` [SDS], the “effect on pre-formed biofilms” value in series [1] is on record as “dispersed pre-formed biofilm”.
For `CC(C)CCCCCCCCC[C@@H]1CC(=O)N[C@@H](CCC(=O)O)C(=O)N[C@@H](CC(C)C)C(=O)N[C@H](CC(C)C)C(=O)N[C@@H](C(C)C)C(=O)N[C@@H](CC(=O)O)C(=O)N[C@H](CC(C)C)C(=O)N[C@@H](CC(C)C)C(=O)O1` [Surfactin, surfactin] (EL[dL]VD[dL]L; linker N-C via X1), the “amount of surfactin sufficient to completely abolish BF” value in the series with wild-type S. enterica (PVC wells pre-coated or surfactin in growth medium, overnight at 30° C.) is under 5 µg. Further, the Bacterial growth entry in the series with wild-type S. enterica (all surfactin concentrations tested) is listed as “unaffected”. Also, the “swarming defect of the LPS mutants” value in series [2] is listed as “rescued”. In the series with Salmonella typhimurium (50 days of storage at room temperature or at 4° C.), the “stability of BF-inhibiting properties on storage” value is on record as “stable”. Further, the “Biofilm formation, optical density reading based on crystal violet staining” value in the series with Salmonella typhimurium (Surfactin-coated catheters) was determined as 0.05; in the series on Salmonella typhimurium (surfactin-baked catheters (one hour at 60° C.), 5 days at room T.), 0.05; with Salmonella typhimurium (surfactin-baked catheters, 24 hour saline wash (0.3 mL/minutes)) it was 0.06; with Proteus mirabilis (Surfactin-coated catheters), 0.11; with Escherichia coli (Surfactin-coated catheters) it was 0.05; in the series on Staphylococcus epidermis it was 0.40. For the same molecule, the “Biofilm Formation” value with Salmonella typhimurium (catheter treatment: Surfactin, saline wash (10 mL sterile saline)) was “++++”; in the series with Salmonella typhimurium (catheter treatment: Surfactin, the oven (50° C., 6 hours)) it was “−”; with Salmonella typhimurium (urethral catheter treatment: Surfactin), “−”. Further, the “formation of biofilm on the catheters” value in the series with Salmonella typhimurium (clear vinyl urethral catheters, 100 μg surfactin, overnight at 30° C.) was “eliminated the formation of biofilm”. The “effect of oven treatment on biofilm inhibition by surfactin” value with Salmonella typhimurium (coated catheters baked in 50° C. oven for 6 hours) is “no effect”. Moreover, the “resistance of baked surfactin coating to saline washing” value with Salmonella typhimurium (oven treatment of surfactin coated catheters) was “resistant to saline washing”. Moreover, the “effectiveness of pre-coating catheters versus surfactin in the growth medium” value in the series with Salmonella typhimurium (surfactin solution run through catheters prior to inoculation) is “just as effective”. Further, the “inhibition of BF and growth” value in the series with Proteus mirabilis (growth in urethral catheters) and in the series with Escherichia coli (growth in urethral catheters) was “inhibited BF (but not growth)” throughout. In series [1] (surfactin 100 μg added at OD630 0.15-0.2, end of experiment at 22 hours), the “decrease in total biofilm (pre-formed)” value is given as “approximately 85%”.
Take `CCCCCCCC/C=C\CCCCCCCC(=O)OCCOCC(OCCO)C1OCC(OCCO)C1OCCO` (centres unmarked) [Tween-80, reference compound]: the “inhibition of BF by S. enterica relative to surfactin” value in the series on Salmonella typhimurium is reported as “as effective as surfactin”. Also, the “effect on pre-formed biofilms” value in series [1] is on record as “dispersed pre-formed biofilm”.
The like results for rhamnolipid [reference compound] were, in that order, “only half as effective” and “dispersed pre-formed biofilm”.
For the molecule serrawettin, the “effect on pre-formed biofilms” value in series [1] is listed as “dispersed pre-formed biofilm”.

Source of the values: patent US20030134783A1, “Use of cyclic heptapeptides for the inhibition of biofilm formation” (priority 2001, published 2003).
